Measurements taken from PMC12707263 (ACS Pharmacology & Translational Science, 2025).
Entries after “also recorded” stand apart in the source; their conditions may differ.

Assays:
[1] = system: 24 kinase targets associated with B-cell malignancy signaling cascades; test: HotSpot profile across the panel; assay type: biochemical
[2] = reported values; ref not given; cited from earlier work
OCI-Ly10 cells = test: Pairwise 10 × 10 matrix combination with venetoclax, Cell Titer Glo viability; details: for synergistic cell killing when combined with venetoclax: ΔBlissSum
HBL1 cells = test: as above; details: venetoclax 1000 nM to 3.9 nM
REC-1 cells = test: as above; details: venetoclax 10000 nM to 39 nM

Compound | off-target profile across the 24 kinase panel [1] | fraction unbound (FU) [2] | synergistic cell killing when combined with venetoclax (OCI-Ly10 cells) | also measured
CC#CC(=O)N1CCC[C@H]1c1nc(-c2ccc(C(=O)Nc3ccccn3)cc2)c2c(N)nccn12 [Acalabrutinib] | most selective; also recorded: remarkably free of any additional off target activity | 2.5 % FU | more focal in nature | 
CC#CC(=O)N[C@H]1CCCN(c2c(F)cc(C(N)=O)c3[nH]c(C)c(C)c23)C1 [Branebrutinib] | remarkably free of any additional off target activity | 1.2 % FU |  | 
C=CC(=O)N1CCC(CNc2ncnc(N)c2-c2ccc(Oc3ccccc3)cc2)CC1 [Evobrutinib] | remarkably free of any additional off target activity |  |  | 
C[C@H]1CN(C2COC2)CCN1c1ccc(Nc2cc(-c3ccnc(N4CCn5c(cc6c5CC(C)(C)C6)C4=O)c3CO)cn(C)c2=O)nc1 [Fenebrutinib] | most selective; also recorded: remarkably free of any additional off target activity |  |  | 
C=CC(=O)N1CCC[C@@H](n2nc(-c3ccc(Oc4ccccc4)cc3)c3c(N)ncnc32)C1 [Ibrutinib] | most promiscuous beyond BMX and BLK |  |  | 
C=CC(=O)Nc1cccc(Oc2nc(Nc3ccc(N4CCN(C)CC4)cc3)nc3ccoc23)c1 [Poseltinib] | most promiscuous beyond BMX and BLK |  | more focal in nature | 
C=CC(=O)N(C)CCOc1c(N)ncnc1-c1cc(F)cc(NC(=O)c2ccc(C3CC3)cc2F)c1C [Remibrutinib] | most selective; also recorded: remarkably free of any additional off target activity |  | similar, broad synergistic cell killing across multiple concentration ranges | 
CC(C)(/C=C(\C#N)C(=O)N1CCC[C@@H](n2nc(-c3ccc(Oc4ccccc4)cc3F)c3c(N)ncnc32)C1)N1CCN(C2COC2)CC1 [Rilzabrutinib] | remarkably free of any additional off target activity |  | similar, broad synergistic cell killing across multiple concentration ranges | 
CC#CC(=O)N1CC[C@@H](n2c(=O)n(-c3ccc(Oc4ccccc4)cc3)c3c(N)ncnc32)C1 [Tirabrutinib] | most selective; also recorded: remarkably free of any additional off target activity | 8.3 % FU |  | 
CC1(C)CCC(CN2CCN(c3ccc(C(=O)NS(=O)(=O)c4ccc(NCC5CCOCC5)c([N+](=O)[O-])c4)c(Oc4cnc5[nH]ccc5c4)c3)CC2)=C(c2ccc(Cl)cc2)C1 [Venetoclax] |  |  |  | single agent activity (cytotoxicity) (OCI-Ly10 cells; venetoclax 1000 nM to 3.9 nM): no single agent activity; single agent activity (cytotoxicity) (HBL1 cells): no single agent activity; single agent activity (cytotoxicity) (REC-1 cells): no single agent activity
C=CC(=O)N1CCC([C@@H]2CCNc3c(C(N)=O)c(-c4ccc(Oc5ccccc5)cc4)nn32)CC1 [Zanubrutinib] | most promiscuous beyond BMX and BLK | 6 % FU | similar, broad synergistic cell killing across multiple concentration ranges | 
